{"source": "patent US11291618B2", "about": "“Long wear skincare compositions” (priority 2019, dated 2022)", "key": {"[1]": {"experiment": "Penetration test using a Strat-M membrane in a Franz Cell, UPLC analysis", "description": "In this study, exemplary actives with different hydrophilicity value were chosen. P is the partition coefficient, where a smaller P (more negative log P) indicates greater hydrophilicity. A penetration test was performed using a Strat-M® membrane, and the collected sample was then analyzed by Ultra-Performance Liquid Chromatography (UPLC). In the receptor chamber of a Franz Cell, 5.00 mL of the incubation medium was added as the collection phase. A Strat-M® membrane was loaded on top of the receptor chamber. The donor chamber was then added on top of the Strat-M® membrane, 0.80 mL of the crème was added to the donor chamber. […] At the end of that time period, 1.00 mL of the collection phase was withdrawn from the sampling port as the sample solution. The sample solution was filtered through a 0.45 micrometer (μm) syringe filter and then added into a 2.0 milliliter (mL) High Performance Liquid Chromatography (HPLC) vial. ACQUITY H UPLC from the Waters Corporation was used to analyze the collected samples from the Franz Cell study.\nThe amount of actives in the collection phase were analyzed by UPLC following the method described above."}, "[2]": {"settings": "cited from earlier work"}}, "note": "Where two headings read alike, the source gives them in different places.", "data": [{"smiles": "O=C1O[C@H]([C@@H](O)CO)C(O)=C1O[C@H]1O[C@H](CO)[C@@H](O)[C@H](O)[C@H]1O", "note": "[ascorbyl glucoside]", "values": [{"measurement": "effect of inclusion of the copolymer blend on delivery of the active", "setting": "[1]", "value": "enhanced the delivery"}, {"measurement": "Active Log P", "setting": "[2]", "value": "−4.79"}]}, {"smiles": "Cn1c(=O)c2c(ncn2C)n(C)c1=O", "note": "[caffeine]", "values": [{"measurement": "% of Penetration", "setting": "[1]; Franz Cell, room temperature, 48 hours", "value": "greater than 100%"}]}, {"smiles": "NC(=O)c1cccnc1", "note": "[niacinamide]", "values": [{"measurement": "effect of inclusion of the copolymer blend on delivery of the active", "setting": "[1]; with versus without copolymer blend", "value": "did not enhance the delivery"}]}]}
